# Biological target: T1, EGFR LRCS (BaF3-LRCS cell line) (Homo sapiens, UniProt P00533, C797S/L858R)
# T1 construct: host or cells: BaF3-LRCS cell line (kept under puromycin selection)
# Test: HTRF Phospho EGFR LRCS assay (cellular)
# Assay type: cell-based
# Conditions: BaF3-LRCS cells, 4 hours incubation, Phospho-EGFR HTRF readout
# Procedure: HTRF Phospho EGFR LRCS assay (cellular)
# BaF3-LRCS cell line were obtained from Crownbio (San Diego, CA, USA). Cells were maintained at 37° C., 5% C02 in RPMI ATCC (Gibco 31870)+2 mM Glutamine+0.5 μg/ml Puromycin supplemented with 10% fetal bovine serum (FBS) (Gibco).
# Cells are transferred as above to Greiner Bio-One, Nr. 784-08 micro-titerplate at 20000 cells/well in 12.5 μl of growth medium/well after the plates had been pre-filled with 12.5 nl of DMSO solutions of the to be tested compounds (in dose response) or DMSO only. After spinning the plates at 300×g for 30 seconds the cells were incubated for 4 hours at 37 C, 5% CO2, 95% humidity. The cells were lysed by adding to the compound mix 4 µl/well of the supplemented lysis buffer (Cis-bio, Phospho-EGFR HTRF kit, 64EG1PEH), followed by incubation for 30 min at room temperature with shaking (400 rpm). The plates were then frozen and stored overnight at −80° C. On the next day and after thawing the plates, 4 μl of a mixture of anti-Phospho-EGFR Cryptate and of anti-Phospho-EGFR-d2 antibody solutions prepared in the supplied detection buffer was added to each well. The lidded plates were then incubated for 4 h at room temperature before reading the fluorescence emission at 616 and 665 nm using an Envision reader (Perkin Elmer). Data was analyzed in similar fashion as above using the normalized ratio of the 665 to 616 signals multiplied by 10000.
# T1 sequence (P00533 25-1210 C797S/L858R): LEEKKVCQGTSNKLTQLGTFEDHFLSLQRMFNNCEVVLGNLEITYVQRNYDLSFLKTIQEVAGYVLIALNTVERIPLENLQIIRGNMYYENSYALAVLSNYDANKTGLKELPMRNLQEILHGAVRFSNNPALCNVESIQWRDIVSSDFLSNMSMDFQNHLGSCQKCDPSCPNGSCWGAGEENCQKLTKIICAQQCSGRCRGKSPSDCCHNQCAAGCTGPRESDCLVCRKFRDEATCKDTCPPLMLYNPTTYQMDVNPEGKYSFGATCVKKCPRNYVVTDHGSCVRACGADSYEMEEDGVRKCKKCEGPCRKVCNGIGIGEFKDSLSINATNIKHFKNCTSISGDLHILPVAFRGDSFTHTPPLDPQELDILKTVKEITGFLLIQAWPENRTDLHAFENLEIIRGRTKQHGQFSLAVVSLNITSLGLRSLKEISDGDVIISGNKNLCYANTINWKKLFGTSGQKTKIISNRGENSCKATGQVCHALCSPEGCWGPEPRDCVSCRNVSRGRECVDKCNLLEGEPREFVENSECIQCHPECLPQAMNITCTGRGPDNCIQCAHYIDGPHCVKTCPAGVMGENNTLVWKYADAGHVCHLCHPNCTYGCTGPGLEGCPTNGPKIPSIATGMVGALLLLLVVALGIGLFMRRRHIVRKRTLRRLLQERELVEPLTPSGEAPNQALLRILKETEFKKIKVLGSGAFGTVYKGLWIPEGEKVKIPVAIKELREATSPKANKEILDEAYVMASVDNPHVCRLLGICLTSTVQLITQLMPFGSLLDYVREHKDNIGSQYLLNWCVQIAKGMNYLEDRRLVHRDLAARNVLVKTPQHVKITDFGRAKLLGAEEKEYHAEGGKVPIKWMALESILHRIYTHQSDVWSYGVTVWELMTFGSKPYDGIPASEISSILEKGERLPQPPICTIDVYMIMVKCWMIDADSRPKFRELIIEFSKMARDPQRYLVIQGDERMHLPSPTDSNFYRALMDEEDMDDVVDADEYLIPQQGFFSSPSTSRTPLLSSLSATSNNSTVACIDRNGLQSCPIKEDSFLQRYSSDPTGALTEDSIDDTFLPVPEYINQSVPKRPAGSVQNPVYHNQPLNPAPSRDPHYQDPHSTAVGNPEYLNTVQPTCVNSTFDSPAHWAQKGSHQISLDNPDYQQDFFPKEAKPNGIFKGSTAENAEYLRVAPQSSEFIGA
row,Structure (SMILES),IC50
1,"Cc1c(-c2ccc(N3CCOCC3)cc2)cc(C(F)F)c2cn(C(C(=O)Nc3nccs3)c3ncn4c3CCC43CC3)nc12 (stereo not drawn) [Example 1, 2-[4-(Difluoromethyl)-7-methyl-6-(4-morpholinophenyl)indazol-2-yl]-2-spiro[6,7-dihydropyrrolo[1,2-c]imidazole-5,1′-cyclopropane]-1-yl-N-thiazol-2-yl-acetamide]",20 nM
2,"Cc1c(-c2ccc(N3CCOCC3)cc2)cc(C(F)(F)F)c2cn(C(C(=O)Nc3nccs3)c3ncn4c3CCC43CC3)nc12 (stereo not drawn) [Example 2, 2-[7-Methyl-6-(4-morpholinophenyl)-4-(trifluoromethyl)indazol-2-yl]-2-spiro[6,7-dihydropyrrolo[1,2-c]imidazole-5,1′-cyclopropane]-1-yl-N-thiazol-2-yl-acetamide]",45 nM
3,"Cc1c(-c2ccc(N3CCOCC3)cc2)cc(C(F)(F)F)c2cn(C(C(=O)Nc3nccs3)c3ncn4c3CCC4(C)C)nc12 (stereo not drawn) [Example 3, 2-(5,5-Dimethyl-6,7-dihydropyrrolo[1,2-c]imidazol-1-yl)-2-[7-methyl-6-(4-morpholinophenyl)-4-(trifluoromethyl)indazol-2-yl]-N-thiazol-2-yl-acetamide]",45 nM

# Source: patent US20250313565A1, “NEW INDAZOLE DERIVATIVES” (Hoffmann-La Roche Inc., priority 2022, published 2025)
